Patent US20260248717A1, “METHOD OF TREATING LOWER TRACT UROTHELIAL CANCER” (TARIS Biomedical LLC, priority 2016, published 2026)

Experiments:
[1] = Comparison of urine gemcitabine and dFdU between minipig study and human phase IB study; type: in vivo; settings: for urine concentrations: mini pig study versus human phase IB study (FIG. 10)
[2] = in vivo
Protocol: The ongoing Phase 1b study, TAR-200-101, is designed to evaluate the safety and tolerability of up to 2 dose cycles of gemcitabine administered intravesicularly at a dose of 225 mg for 7 days separated by a rest period of 14 days using the GemRIS system, over a 28-day period in patients with confirmed muscle-invasive transitional cell carcinoma of the bladder (>/=clinical and pathologic stage pT2a), who are scheduled to undergo radical cystectomy (RC) with concomitant lymphadenectomy.
Gemcitabine Releasing Intravesical System (GemRIS) is placed into the bladder through an inserter on Study Day 0 and is removed on Study Day 7. GemRIS releases gemcitabine gradually during the 7 day indwelling time. A second GemRIS is placed in the bladder on Study Day 21 and is removed on Study Day 28 which is the day of the TURBT. GemRIS is a passive, nonresorbable gemcitabine-releasing intravesicular (intravesical) system whose primary mode of action is the controlled release of gemcitabine into the bladder over a 7 day period.
The primary outcome measures are the number of participants with treatment emergent adverse events (TEAEs) coded with MedDRA and graded for severity with CTCAE v4.0. The secondary outcome measures are the number and percentage of participants who are tolerant of GemRIS indwelling on days 1-7 and 21-28. Plasma and urine levels of dFdC and dFdU are also measured. […] Cmax, plasma dFdU Analysis of Cmax (maximum concentration achieved over time) of diflourodeoxyuridine (dFdU) in plasma. [Time Frame: From Day 0 up to Day 28] • 6. Tmax, plasma dFdU. Analysis of Tmax (Day at which maximum concentration was achieved) of diflourodeoxyuridine (dFdU) in plasma. [Time Frame: From Day 0 up to Day 28] • 7. Cavg, plasma dFdU. Analysis of Descriptive statistics (e.g. sample size, mean and median, quartiles, minimum and maximum and box plots) of the concentration of diflourodeoxyuridine (dFdU) in plasma. [Time Frame: From Day 0 up to Day 28] • 8. Cmax, plasma dFdC. Analysis of Cmax (maximum concentration achieved over time) of gemcitabine (deoxydifluorocytidine hydrochloride dFdC) in plasma. [Time Frame: From Day 0 up to Day 28] • 9. Tmax, plasma dFdC. Analysis of Tmax (Day at which maximum concentration was achieved) of gemcitabine (deoxydifluorocytidine hydrochloride—dFdC) in plasma [Time Frame: From Day 0 up to Day 28] • 10. Cavg, plasma dFdC. Analysis of Descriptive statistics (e.g. sample size, mean and median, quartiles, minimum and maximum and box plots) of the concentration of gemcitabine (deoxydifluorocytidine hydrochloride—dFdC) in plasma [Time Frame: From Day 0 up to Day 28]. • 11. Cmax, urine dFdU (Arm 1 only). Analysis of Cmax (maximum concentration achieved over time) of diflourodeoxyuridine (dFdU) in urine. [Time Frame: From Day 0 up to Day 28] • 12. Tmax, urine dFdU (Arm 1 only). Analysis of Cmax (maximum concentration achieved over time) of diflourodeoxyuridine (dFdU) in urine. [Time Frame: From Day 0 up to Day 28] • 13. Tmax, urine dFdU (Arm 1 only). Analysis of Cmax (maximum concentration achieved over time) of diflourodeoxyuridine (dFdU) in urine. [Time Frame: From Day 0 up to Day 28] • 14. Cavg, urine dFdU (Arm 1 only). Analysis of Descriptive statistics (e.g. sample size, mean and median, quartiles, minimum and maximum and box plots) of the concentration of diflourodeoxyuridine (dFdU) in urine. [Time Frame: From Day 0 up to Day 28] • 15. Cmax, urine dFdC (Arm 1 only).

[3] = tested on: T24 human bladder cancer cells; experiment: Orthotopic bladder cancer model in rats, continuous gemcitabine perfusion of the bladder; type: in vivo, Athymic nude rats
From the text: After day 11, the bladders were removed and subject to histological analysis.

[4] = Minipig model, local continuous gemcitabine from an intravesical device for one week; type: in vivo, minipigs; settings: device removed at day 7; tissue levels estimated from gemcitabine and active metabolite in urine (FIG. 2)
Protocol: A minipig model was developed to investigate the effect of administering gemcitabine to the bladder locally and continuously using an intravesicular (intravesical) device. For this study, gemcitabine was continuously administered to minipigs for one week using an intravesicular (intravesical) device. The intravesicular (intravesical) device was removed at day 7. The concentration of gemcitabine and active metabolite was measured in the urine of the minipigs following removal of the device. Based upon the level of gemcitabine and active metabolite in the urine, the therapeutic gemcitabine levels in the bladder tissue were estimated.

[5] = Pilot pharmacokinetic study, 14C-gemcitabine perfused via intra-urinary bladder cannula; type: in vivo, male Sprague-Dawley rats; settings: 3.85 mg/mL, 300 μL/hr
Protocol: A pilot study performed was using male Sprague-Dawley rats to determine the pharmacokinetics and pharmacodynamics properties of administering gemcitabine locally and continuously to the bladder. Rats were fitted with intra-urinary bladder cannula (IUBC) and radiolabeled ^14C-gemcitabine was perfused for 6 or 24 hours at a rate of 300 μL/hr at a concentration of 3.85 mg/mL of gemcitabine. The concentration of gemcitabine in various tissue layers were measured.

[6] = tested on: NBT-II rat bladder tumor cells; experiment: Syngeneic rat bladder tumor model, immune effects of continuous local gemcitabine; type: in vivo, Wistar rats
Protocol: A syngeneic rat model was developed to assess treatment efficacy and immune effects of continuous local administration to the bladder. Wistar rats were cannulated on day 0 and injected with NBT-II rat bladder tumor cells on day 3. Tumors were allowed to grow for 5 days prior to the start of perfusion on day 8. On days 8-13 of the study gemcitabine was perfused at a concentration of 90 μg/ml or 180 μg/ml. The rats were euthanized on day 14. Samples from the tumor, spleen, blood and plasma were collected for histopathology and immunohistochemistry, flow cytometry, and cytokine profiling.
The level of activated CD8+ and CD4+ T cells were also measured in the tumor microenvironment compared to the level of CD+4 and CD8+ regulatory cells.
Plasma TGFβ and IL-10 levels were also measured following delivery of gemcitabine. […] Inhibition of TGFβ is known to impair Treg activation.

[7] = rat, in vivo
Protocol: An orthotopic bladder cancer model was developed in rats to allow evaluation of the efficacy of continuous administration of gemcitabine to the bladder on treatment of a human bladder cancer cell line. Athymic nude rats were cannulated on day 0. The rats were injected with fluorescently labeled T24 human bladder cancer cells on day 3. On day 5 of the study, tumors were observable. Gemcitabine perfusion started on day 6 and continued until day 11. Three concentrations of gemcitabine were tested: 90 μg/ml, 180 μg/ml, and 350 μg/ml.

| Compound | urine concentrations [1] | plasma concentrations of dFdU (quantifiable samples) [2] [µg/mL] | plasma samples with low but quantifiable dFdU [2] | urine levels [2] | tumor volume compared to untreated control (tumor size as net average intensity, FIG. 1) ([3]; 90 μg/ml gemcitabine, continuous perfusion day 6 to day 11, five day study period) | anti-tumor effect with increasing concentration ([3]; 90 μg/ml, 180 μg/ml and 350 μg/ml gemcitabine perfusion) | therapeutically relevant gemcitabine levels in bladder tissue after device removal [4] | distribution of radiolabel among bladder tissue layers ([5]; perfused for 6 or 24 hours) | penetration into bladder tissue layers ([5]; perfused for 6 or 24 hours (FIG. 3)) | plasma TGFβ level compared to control animals ([6]; 180 μg/mL gemcitabine (FIG. 6)) | plasma IL-10 level ([6]; 180 μg/mL gemcitabine, versus untreated control rats (FIG. 7)) | level of activated CD4+ and CD8+ cells in the spleen ([6]; gemcitabine perfusion days 8-13, versus untreated control rats (FIG. 5)) | ratio of regulatory T cells to activated CD4+ and CD8+ T cells in the tumor microenvironment ([6]; perfusion 90 or 180 μg/mL, days 8-13 (FIG. 4)) | levels of gemcitabine excreted in the urine ([1]; minipig study versus human phase IB trial (FIG. 9)) | hematuria [7] | urine and blood parameters [7] | plasma concentrations of gemcitabine ([2]; human) [µg/mL] |
| --- | --- | --- | --- | --- | --- | --- | --- | --- | --- | --- | --- | --- | --- | --- | --- | --- | --- |
| O=c1ccn(C2OC(CO)C(O)C2(F)F)c(=O)[nH]1 (stereo not shown) [dFdU, diflourodeoxyuridine] | comparable | 0.104 to 0.284 | 10 of 55 | measurable | – | – | – | – | – | – | – | – | – | – | – | – | – |
| Nc1ccn([C@@H]2O[C@H](CO)[C@@H](O)C2(F)F)c(=O)n1 [gemcitabine, 2′,2′-difluorodeoxycytidine] | comparable | – | – | measurable | significant reduction in tumor volume | increased with administration of increasing concentrations | persisted well after the device was removed | most concentrated in the adventitia and epithelium, followed by muscle and lamina propria | able to penetrate into deeper bladder tissues | decreased | increased | increased | decreased | comparable | observed in all perfusion animals | No major significant differences | < 0.1 |
